Patent US10856562B2, “Flavor composition and edible compositions containing same” (MARS, INCORPORATED, priority 2013, dated 2020)
Square brackets hold non-standard residues; d marks the D form. Ends that are not written are not given here. pGlu = O=C1CC[C@@H](C(=O)O)N1

System: panelists
Experiment: Attribute perception scores of flavor enhancers in solution (Example 6)
Type: in vivo, human
Parameters: key to Metallic / Numbing / Atringent / Salt / Sweet / Sour / Bitter / Umami / Sour, mean evaluation score in solution / Numbing, mean evaluation score in solution / Astringent / Umami FF: 15-point intensity scale, 0 = none, 15 = very strong
Conditions: for Astringent / Bitter / Flinty/Mineral / Metallic / Numbing / Salt / Sour / Sweet / Umami / Umami FF / Atringent / Mineral/Flinty / Umami/brothy: solution
Method: Descriptive attributes (e.g., taste, flavor and chemical feeling factors) of three use levels of pGlu-Cys (FE-35), pGlu-Cys-Gly (FE-36), pGlu-Cys-Cys (FE-37), pGlu-Cys-Val (FE-38) and pGlu-Val-Cys (UE-30) flavor composition peptides were determined. The three use levels were as follows: 1.0 ppb, 10.0 ppb and 100.0 ppb.
Data was collected for the attributes of the product in-mouth for the use levels according to the following protocol: • The samples were analyzed for flavor by six to nine members of a panel, trained and experienced in flavor evaluation using the Spectrum™ method. Samples were evaluated across multiple panel sessions. • The strength of each attribute was rated on a 15-point scale, where 0=none and 15=very strong. • This scale incorporates the ability to use tenths of a point and therefore has the potential of 150 scale differentiations. • The scale may be expanded beyond 15 points to include extreme ratings if necessary.
A summary of the concentrations of NaCl, water and flavor composition peptides in the solution samples is described in table 24.
The panelists evaluated each sample for the attributes described by table 25.

[1] = 10.0 ppb, mean evaluation score
[2] = 100.0 ppb, mean evaluation score
[3] = Concentration 1, MAX, 15-point scale
[4] = Concentration 1, MEAN, 15-point scale
[5] = Concentration 1, MIN, 15-point scale
[6] = Concentration 10, MAX, 15-point scale
[7] = Concentration 10, MEAN, 15-point scale
[8] = Concentration 10, MIN, 15-point scale
[9] = Concentration 100, MAX, 15-point scale
[10] = Concentration 100, MEAN, 15-point scale
[11] = Concentration 100, MIN, 15-point scale

Question: [pGlu]-Cys-Gly [FE-36] was tested. Which “Patterns of attributes in solution as concentrations increase” value (1.0 to 100 ppb) did it give?
Answer: No distinct patterns are seen

Question: And the Astringent (1.0 ppb, mean evaluation score)?
Answer: 0.0

Question: And the Bitter (1.0 ppb, mean evaluation score)?
Answer: 0.0

Question: And the Flinty/Mineral (1.0 ppb, mean evaluation score)?
Answer: 0.7

Question: What about the Metallic (1.0 ppb, mean evaluation score) of the same substance?
Answer: 0.1

Question: And the Numbing (1.0 ppb, mean evaluation score)?
Answer: 0.0

Question: What about the Salt (1.0 ppb, mean evaluation score) of the same substance?
Answer: 2.6

Question: And the Sour (1.0 ppb, mean evaluation score)?
Answer: 0.0

Question: And the Sweet (1.0 ppb, mean evaluation score)?
Answer: 0.2

Question: And the Umami (1.0 ppb, mean evaluation score)?
Answer: 0.3

Question: What about the “Umami FF” value (1.0 ppb, mean evaluation score) of the same substance?
Answer: 1.5

Question: What about the Astringent [1] of the same substance?
Answer: 0.0

Question: What about the Bitter [1] of the same substance?
Answer: 0.0

Question: And the Flinty/Mineral [1]?
Answer: 0.8

Question: What about the Metallic [1] of the same substance?
Answer: 0.0

Question: What about the Numbing [1] of the same substance?
Answer: 0.0

Question: What about the Salt [1] of the same substance?
Answer: 1.9

Question: What about the Sour [1] of the same substance?
Answer: 0.0

Question: And the Sweet [1]?
Answer: 0.0

Question: And the Umami [1]?
Answer: 0.1

Question: And the “Umami FF” value [1]?
Answer: 0.9

Question: What about the Astringent [2] of the same substance?
Answer: 0.0

Question: What about the Bitter [2] of the same substance?
Answer: 0.0

Question: And the Flinty/Mineral [2]?
Answer: 0.8

Question: And the Metallic [2]?
Answer: 0.0

Question: And the Numbing [2]?
Answer: 0.0

Question: What about the Salt [2] of the same substance?
Answer: 2.1

Question: And the Sour [2]?
Answer: 0.0

Question: And the Sweet [2]?
Answer: 0.0

Question: What about the Umami [2] of the same substance?
Answer: 0.0

Question: And the “Umami FF” value [2]?
Answer: 1.6

Question: What about the Atringent [3] of the same substance?
Answer: 0.0

Question: And the Bitter [3]?
Answer: 0.0

Question: What about the Metallic [3] of the same substance?
Answer: 0.8

Question: And the Mineral/Flinty [3]?
Answer: 1.0

Question: What about the Numbing [3] of the same substance?
Answer: 0.0

Question: What about the Salt [3] of the same substance?
Answer: 3.0

Question: What about the Sour [3] of the same substance?
Answer: 0.0

Question: And the Sweet [3]?
Answer: 1.0

Question: And the Umami [3]?
Answer: 2.0

Question: What about the Umami/brothy [3] of the same substance?
Answer: 1.0

Question: What about the Atringent [4] of the same substance?
Answer: 0.0

Question: What about the Bitter [4] of the same substance?
Answer: 0.0

Question: And the Metallic [4]?
Answer: 0.1

Question: And the Mineral/Flinty [4]?
Answer: 0.7

Question: And the Numbing [4]?
Answer: 0.0

Question: And the Salt [4]?
Answer: 2.6

Question: What about the Sour [4] of the same substance?
Answer: 0.0

Question: And the Sweet [4]?
Answer: 0.2

Question: What about the Umami [4] of the same substance?
Answer: 1.5

Question: What about the Umami/brothy [4] of the same substance?
Answer: 0.3

Question: What about the Atringent [5] of the same substance?
Answer: 0.0

Question: And the Bitter [5]?
Answer: 0.0

Question: What about the Metallic [5] of the same substance?
Answer: 0.0

Question: What about the Mineral/Flinty [5] of the same substance?
Answer: 0.0

Question: And the Numbing [5]?
Answer: 0.0

Question: And the Salt [5]?
Answer: 2.5

Question: What about the Sour [5] of the same substance?
Answer: 0.0

Question: And the Sweet [5]?
Answer: 0.0

Question: What about the Umami [5] of the same substance?
Answer: 1.0

Question: And the Umami/brothy [5]?
Answer: 0.0

Question: And the Atringent [6]?
Answer: 0.0

Question: What about the Bitter [6] of the same substance?
Answer: 0.0

Question: What about the Metallic [6] of the same substance?
Answer: 0.0

Question: What about the Mineral/Flinty [6] of the same substance?
Answer: 1.5

Question: What about the Numbing [6] of the same substance?
Answer: 0.0

Question: What about the Salt [6] of the same substance?
Answer: 2.3

Question: What about the Sour [6] of the same substance?
Answer: 0.0

Question: And the Sweet [6]?
Answer: 0.0

Question: And the Umami [6]?
Answer: 2.0

Question: What about the Umami/brothy [6] of the same substance?
Answer: 0.8

Question: And the Atringent [7]?
Answer: 0.0

Question: What about the Bitter [7] of the same substance?
Answer: 0.0

Question: And the Metallic [7]?
Answer: 0.0

Question: And the Mineral/Flinty [7]?
Answer: 0.8

Question: And the Numbing [7]?
Answer: 0.0

Question: And the Salt [7]?
Answer: 1.9

Question: What about the Sour [7] of the same substance?
Answer: 0.0

Question: What about the Sweet [7] of the same substance?
Answer: 0.0

Question: What about the Umami [7] of the same substance?
Answer: 0.9

Question: And the Umami/brothy [7]?
Answer: 0.1

Question: And the Atringent [8]?
Answer: 0.0

Question: And the Bitter [8]?
Answer: 0.0

Question: And the Metallic [8]?
Answer: 0.0

Question: What about the Mineral/Flinty [8] of the same substance?
Answer: 0.0

Question: And the Numbing [8]?
Answer: 0.0

Question: And the Salt [8]?
Answer: 1.5

Question: And the Sour [8]?
Answer: 0.0

Question: And the Sweet [8]?
Answer: 0.0

Question: What about the Umami [8] of the same substance?
Answer: 0.0

Question: And the Umami/brothy [8]?
Answer: 0.0

Question: And the Atringent [9]?
Answer: 0.0

Question: And the Bitter [9]?
Answer: 0.0

Question: And the Metallic [9]?
Answer: 0.0

Question: And the Mineral/Flinty [9]?
Answer: 1.0

Question: And the Numbing [9]?
Answer: 0.0

Question: And the Salt [9]?
Answer: 3.0

Question: And the Sour [9]?
Answer: 0.0

Question: What about the Sweet [9] of the same substance?
Answer: 0.0

Question: And the Umami [9]?
Answer: 3.0

Question: And the Umami/brothy [9]?
Answer: 0.0

Question: And the Atringent [10]?
Answer: 0.0

Question: And the Bitter [10]?
Answer: 0.0

Question: What about the Metallic [10] of the same substance?
Answer: 0.0

Question: What about the Mineral/Flinty [10] of the same substance?
Answer: 0.8

Question: And the Numbing [10]?
Answer: 0.0

Question: And the Salt [10]?
Answer: 2.1

Question: What about the Sour [10] of the same substance?
Answer: 0.0

Question: What about the Sweet [10] of the same substance?
Answer: 0.0

Question: What about the Umami [10] of the same substance?
Answer: 1.6

Question: And the Umami/brothy [10]?
Answer: 0.0

Question: And the Atringent [11]?
Answer: 0.0

Question: What about the Bitter [11] of the same substance?
Answer: 0.0

Question: And the Metallic [11]?
Answer: 0.0

Question: And the Mineral/Flinty [11]?
Answer: 0.0

Question: And the Numbing [11]?
Answer: 0.0

Question: And the Salt [11]?
Answer: 1.5

Question: And the Sour [11]?
Answer: 0.0

Question: And the Sweet [11]?
Answer: 0.0

Question: And the Umami [11]?
Answer: 0.5

Question: And the Umami/brothy [11]?
Answer: 0.0
